Experiments:
[1] = system: Na+-dependent Cl-/HCO3- exchanger (NCBE); experiment: Inhibition of the Na+-dependent Cl-/HCO3- exchanger (NCBE) in human endothelial cells (pHi recovery, BCECF fluorescence, FLIPR); format: cell-based; conditions: inhibitor concentration 10 μM; human endothelial cells (ECV-304); 50 μM HOE 642 present; 35° C., 2 minutes
Description: Inhibition of the Na^+-dependent Cl^−/HCO3^− exchanger (NCBE) in human endothelial cells
Human endothelial cells (ECV-304) were detached from culture bottles with the aid of trypsin/EDTA buffer (0.05/0.02% in phosphate buffer) and, after centrifugation (100 g, 5 min), taken up in a buffered salt solution (mmol/l: 115 NaCl, 20 NH4Cl, 5 KCl, 1 CaCl2, 1 MgSO4, 20 N-(2-hydroxyethyl)piperazine-N-2-ethanesulfonic acid (HEPES), 5 glucose and 1 g/l of bovine serum albumin; pH 7.4). This cell suspension was incubated at 37° C. for 20 min with 5 μM BCECF-acetoxymethyl ester. […] For subsequent fluorescence measurement in an FLIPR (Fluorescent Imaging Plate Reader) 100 μl of this cell suspension having 20,000 cells in each case were pipetted per well into a 96-well microtiter plate and this microtiter plate was centrifuged (100 g, 5 min). […] After addition of the buffer solutions to the dye-loaded, acidified cells in the measurement plate, the rise in the fluorescence intensity, which corresponded to a rise in the pHi, in each well of the microtiter plate was determined. The kinetics were in this case recorded at 35° C. for a period of 2 minutes. The increase in the fluorescence intensities for different concentrations of the compounds according to the invention was related to the two controls and from this the inhibitory action of the substances was determined.

melting point: 220 °C (dec.)
Compound: CS(=O)(=O)c1cc(-c2ccccc2S(=O)(=O)NC#N)ccc1Cn1c(-c2ccccc2)nc(Cl)c1C=O [Example 2, 4′-(4-Chloro-5-formyl-2-phenylimidazol-1-ylmethyl)-3′-methanesulfonylbiphenyl-2-sulfonylcyanamide]
Residual activity of the NCBE at an inhibitor concentration of 10 μM [1]: 18.3%
